Here are results for 14 compounds from ChEMBL document CHEMBL5724914, “Linking interpersonal differences in gut microbiota composition and drug biotransformation activity” (2024).

The nature of data set [1]: The drug is tested on Z-025 corresponding to rabbit gut metagenome with ENA study accession number: PRJEB37062 and ENA sample accession number: ERS12561824 for biotransformation under anaerobic condition. The drug concentrations were measured over 9 timepoints collected between 0 and 24 hours of incubation by liquid-chromatography-coupled mass spectrometry (LC–MS). As to conditions: 2 µM.

Data set [2] is described as follows: The drug is tested on Z-024 corresponding to pig gut metagenome with ENA study accession number: PRJEB37062 and ENA sample accession number: ERS12561823 for biotransformation under anaerobic condition. The drug concentrations were measured over 9 timepoints collected between 0 and 24 hours of incubation by liquid-chromatography-coupled mass spectrometry (LC–MS). As to conditions: 2 µM.

A short description of data set [3]: The drug is tested on Z-013 corresponding to rabbit gut metagenome with ENA study accession number: PRJEB37062 and ENA sample accession number: ERS12561813 for biotransformation under anaerobic condition. The drug concentrations were measured over 9 timepoints collected between 0 and 24 hours of incubation by liquid-chromatography-coupled mass spectrometry (LC–MS). The settings on record: 2 µM.

Data set [4] in a line: The drug is tested on Z-011 corresponding to mouse gut metagenome with ENA study accession number: PRJEB37062 and ENA sample accession number: ERS12561811 for biotransformation under anaerobic condition. The drug concentrations were measured over 9 timepoints collected between 0 and 24 hours of incubation by liquid-chromatography-coupled mass spectrometry (LC–MS). As to conditions: 2 µM.

A short description of data set [5]: The drug is tested on Z-004 corresponding to metagenome with ENA study accession number: PRJEB37062 and ENA sample accession number: ERS12561804 for biotransformation under anaerobic condition. The drug concentrations were measured over 9 timepoints collected between 0 and 24 hours of incubation by liquid-chromatography-coupled mass spectrometry (LC–MS). The settings on record: 2 µM.

Data set [6] in a line: The drug is tested on WLS-052 corresponding to human gut metagenome with ENA study accession number: PRJEB37062 and ENA sample accession number: ERS12561747 for biotransformation under anaerobic condition. The drug concentrations were measured over 9 timepoints collected between 0 and 24 hours of incubation by liquid-chromatography-coupled mass spectrometry (LC–MS). As to conditions: 2 µM.

The conditions of data set [7]: human gut metagenome, 24 h, 2 µM.
The conditions of data set [8]: human gut metagenome, 24 h, 2 µM. This is another data set of the same source.
For data set [9] the following is noted: human gut metagenome, 24 h, 2 µM. This is another data set of the same source.

SMILES strings stand for the structures.
Further: call rule not given here.

Turning to `COc1c(C)c2c(c(O)c1C/C=C(\C)CCC(=O)OCCN1CCOCC1)C(=O)OC2` [MYCOPHENOLATE MOFETIL], the “Bacterial Biotransformation” value in data set [1], in data set [2], in data set [3], in data set [4], in [5] and in [6] was “Compound metabolized” each time. In addition, the “Bacterial Biotransformation” value in data set [7], in data set [8] and in data set [9] was “Compound metabolized” in each case.

For `CCN(CC)CCOC(=O)C(Cc1cccc2ccccc12)CC1CCCO1.O=C(O)C(=O)O` (stereo unspecified) [NAFRONYL OXALATE], the “Bacterial Biotransformation” value in data set [1] was “Compound NOT metabolized”; in data set [2], “Compound metabolized”; in data set [3], “Compound NOT metabolized”; in [4], “Compound NOT metabolized”; in [5], “Compound metabolized”; in [6] it was “Compound metabolized”. Besides, the “Bacterial Biotransformation” value was “Compound metabolized” in data set [7], “Compound NOT metabolized” in data set [8] and “Compound metabolized” in [9].

`C=CCN1CC[C@]23c4c5ccc(O)c4O[C@H]2C(=O)CC[C@@]3(O)[C@H]1C5` [NALOXONE]: the “Bacterial Biotransformation” value in data set [1], in data set [2], in data set [3], in [4], in data set [5] and in data set [6] was “Compound NOT metabolized” each time. In addition, the “Bacterial Biotransformation” value in [7], in data set [8] and in [9] was “Compound NOT metabolized” throughout.

Regarding `CCc1nn(CCCN2CCN(c3cccc(Cl)c3)CC2)c(=O)n1CCOc1ccccc1` [NEFAZODONE], the “Bacterial Biotransformation” value in data set [1] was “Compound NOT metabolized”; in [2], “Compound NOT metabolized”; in [3] it was “Compound NOT metabolized”; in data set [4], “Compound NOT metabolized”; in data set [5] it was “Compound NOT metabolized”; in data set [6], “Compound metabolized”. The “Bacterial Biotransformation” value is “Compound NOT metabolized” in data set [7], “Compound metabolized” in data set [8] and “Compound metabolized” in data set [9].

Take `CN1CCOC(c2ccccc2)c2ccccc2C1` (stereo unspecified) [NEFOPAM]: the “Bacterial Biotransformation” value in data set [1], in data set [2], in data set [3], in data set [4], in [5] and in [6] was “Compound NOT metabolized” in each case. The “Bacterial Biotransformation” value was “Compound metabolized” in data set [7], “Compound NOT metabolized” in data set [8] and “Compound NOT metabolized” in data set [9].

As to `Cc1ccnc2c1NC(=O)c1cccnc1N2C1CC1` [NEVIRAPINE], the “Bacterial Biotransformation” value in data set [1], in data set [2], in data set [3], in data set [4], in [5] and in [6] was “Compound NOT metabolized” in each case. The “Bacterial Biotransformation” value is “Compound metabolized” in [7], “Compound NOT metabolized” in [8] and “Compound NOT metabolized” in data set [9].

Regarding `CO[C@]12C[C@@H](COC(=O)c3cncc(Br)c3)CN(C)[C@@H]1Cc1cn(C)c3cccc2c13` [NICERGOLINE], the “Bacterial Biotransformation” value in data set [1], in [2], in data set [3], in data set [4], in data set [5] and in data set [6] was “Compound metabolized” in each case. Besides, the “Bacterial Biotransformation” value in data set [7], in data set [8] and in [9] was “Compound NOT metabolized” throughout.

In the case of `COc1ccc2c(c1OC)C(=O)O[C@@H]2[C@H]1c2c(cc3c(c2OC)OCO3)CCN1C` [NOSCAPINE], the “Bacterial Biotransformation” value in data set [1] is reported as “Compound NOT metabolized”; in data set [2] it was “Compound metabolized”; in [3], “Compound NOT metabolized”; in data set [4], “Compound metabolized”; in [5], “Compound NOT metabolized”; in [6], “Compound NOT metabolized”. Moreover, the “Bacterial Biotransformation” value is listed as “Compound NOT metabolized” in data set [7], “Compound metabolized” in data set [8] and “Compound NOT metabolized” in data set [9].

For the compound `CCCc1nc(C(C)(C)O)c(C(=O)OCc2oc(=O)oc2C)n1Cc1ccc(-c2ccccc2-c2nnn[nH]2)cc1` [OLMESARTAN MEDOXOMIL], the “Bacterial Biotransformation” value was “Compound metabolized” in data set [1]; “Compound metabolized” in data set [2]; “Compound metabolized” in data set [3]; “Compound NOT metabolized” in data set [4]; “Compound metabolized” in data set [5]; “Compound metabolized” in [6]. The “Bacterial Biotransformation” value in data set [7], in data set [8] and in [9] was “Compound metabolized” throughout.

On to `NC(=O)N1c2ccccc2CC(=O)c2ccccc21` [OXCARBAZEPINE], for which the “Bacterial Biotransformation” value in [1] is reported as “Compound NOT metabolized”; in [2], “Compound metabolized”; in data set [3] it was “Compound NOT metabolized”; in data set [4] it was “Compound NOT metabolized”; in data set [5], “Compound metabolized”; in data set [6], “Compound NOT metabolized”. For the same compound, the “Bacterial Biotransformation” value is listed as “Compound metabolized” in data set [7], “Compound NOT metabolized” in data set [8] and “Compound NOT metabolized” in data set [9].

In the case of `CCN(CC)CC#CCOC(=O)C(O)(c1ccccc1)C1CCCCC1.Cl` (stereo unspecified) [OXYBUTYNIN CHLORIDE], the “Bacterial Biotransformation” value is “Compound NOT metabolized” in data set [1]; “Compound metabolized” in data set [2]; “Compound NOT metabolized” in [3]; “Compound NOT metabolized” in data set [4]; “Compound metabolized” in data set [5]; “Compound metabolized” in [6]. Besides, the “Bacterial Biotransformation” value in data set [7], in data set [8] and in data set [9] was “Compound metabolized” each time.

In the case of `Fc1ccc([C@@H]2CCNC[C@H]2COc2ccc3c(c2)OCO3)cc1` [PAROXETINE], the “Bacterial Biotransformation” value in data set [1] is on record as “Compound NOT metabolized”; in [2], “Compound metabolized”; in [3], “Compound NOT metabolized”; in data set [4], “Compound NOT metabolized”; in data set [5], “Compound NOT metabolized”; in data set [6] it was “Compound NOT metabolized”. The “Bacterial Biotransformation” value in data set [7] was “Compound metabolized”; in data set [8] it was “Compound NOT metabolized”; in data set [9], “Compound metabolized”.

For the compound `O=c1[nH]c2ccccc2n1C1CCN(CCCC(c2ccc(F)cc2)c2ccc(F)cc2)CC1` [PIMOZIDE], the “Bacterial Biotransformation” value is “Compound metabolized” in [1]; “Compound metabolized” in data set [2]; “Compound metabolized” in data set [3]; “Compound metabolized” in data set [4]; “Compound NOT metabolized” in [5]; “Compound metabolized” in data set [6]. Moreover, the “Bacterial Biotransformation” value was “Compound metabolized” in data set [7], “Compound NOT metabolized” in data set [8] and “Compound metabolized” in data set [9].

Consider `COc1cc2nc(N3CCN(C(=O)c4ccco4)CC3)nc(N)c2cc1OC` [PRAZOSIN], for which the “Bacterial Biotransformation” value in data set [1], in data set [2], in data set [3], in data set [4], in data set [5] and in data set [6] was “Compound NOT metabolized” throughout. The “Bacterial Biotransformation” value in [7], in data set [8] and in [9] was “Compound NOT metabolized” each time.
